In PubChem BioAssay (NCI):
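Test compounds were applied to cells in 96-well plates for 48 hours at 5 doses. TGI denotes the concentration required for complete inhibition of growth.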

What was measured:
Test in all cases: DTP human tumour cell line panel, 48 h
A498 renal = system: A498 renal
CAKI-1 renal = system: CAKI-1 renal
HCT-15 colon = system: HCT-15 colon
HOP-92 NSCLC = system: HOP-92 NSCLC
HT29 colon = system: HT29 colon
K-562 leukemia = system: K-562 leukemia
LOX IMVI melanoma = system: LOX IMVI melanoma
MOLT-4 leukemia = system: MOLT-4 leukemia
NCI-H23 lung = system: NCI-H23 lung
OVCAR-8 ovarian = system: OVCAR-8 ovarian
RPMI-8226 leukemia = system: RPMI-8226 leukemia
SF-268 CNS = system: SF-268 CNS
SF-295 CNS = system: SF-295 CNS
SF-539 CNS = system: SF-539 CNS
SK-MEL-2 melanoma = system: SK-MEL-2 melanoma
SK-MEL-28 melanoma = system: SK-MEL-28 melanoma
SW-620 colon = system: SW-620 colon
UO-31 renal = system: UO-31 renal
M14 melanoma = system: M14 melanoma
TK-10 renal = system: TK-10 renal

COc1ccccc1Cc1nc(-c2ccccc2)nn(C2OC(COC(C)=O)C(OC(C)=O)C(OC(C)=O)C2OC(C)=O)c1=S (stereo not drawn)
TGI (A498 renal): > 56.2 µM
TGI (CAKI-1 renal): 32.9 µM
TGI (HCT-15 colon): 84.6 µM
TGI (HOP-92 NSCLC): 24.4 µM
TGI (HT29 colon): > 100 µM
TGI (K-562 leukemia): > 100 µM
TGI (LOX IMVI melanoma): > 100 µM
TGI (MOLT-4 leukemia): > 100 µM
TGI (NCI-H23 lung): 42.6 µM
TGI (OVCAR-8 ovarian): > 100 µM
TGI (RPMI-8226 leukemia): 80.6 µM
TGI (SF-268 CNS): 60.4 µM
TGI (SF-295 CNS): > 69.4 µM
TGI (SF-539 CNS): 33.6 µM
TGI (SK-MEL-2 melanoma): 41.3 µM
TGI (SK-MEL-28 melanoma): > 100 µM
TGI (SW-620 colon): > 100 µM
TGI (UO-31 renal): > 86 µM

COc1cc2c(cc1OC)C(Cl)C(c1ccc(Cl)c(Cl)c1)=C2Cl (stereo not drawn)
TGI (A498 renal): 34 µM
TGI (CAKI-1 renal): 25.1 µM
TGI (HCT-15 colon): 12.6 µM
TGI (HOP-92 NSCLC): 15.1 µM
TGI (HT29 colon): 12.2 µM
TGI (K-562 leukemia): > 100 µM
TGI (LOX IMVI melanoma): 5.75 µM
TGI (M14 melanoma): 50.1 µM
TGI (MOLT-4 leukemia): 12.3 µM
TGI (NCI-H23 lung): > 100 µM
TGI (OVCAR-8 ovarian): 19.5 µM
TGI (RPMI-8226 leukemia): 12.8 µM
TGI (SF-295 CNS): 22 µM
TGI (SF-539 CNS): 22.2 µM
TGI (SK-MEL-2 melanoma): 21.3 µM
TGI (SK-MEL-28 melanoma): 32.7 µM
TGI (SW-620 colon): 20 µM
TGI (TK-10 renal): 48.7 µM
TGI (UO-31 renal): 24.8 µM

COc1cc(C(C)c2cc3c(cc2OCCO)OCO3)cc(OC)c1OC (stereo not drawn)
TGI (CAKI-1 renal): > 100 µM
TGI (HCT-15 colon): > 100 µM
TGI (HT29 colon): > 100 µM
TGI (K-562 leukemia): > 100 µM
TGI (LOX IMVI melanoma): > 100 µM
TGI (M14 melanoma): > 100 µM
TGI (MOLT-4 leukemia): > 100 µM
TGI (OVCAR-8 ovarian): > 100 µM
TGI (RPMI-8226 leukemia): > 100 µM
TGI (SF-268 CNS): > 100 µM
TGI (SF-295 CNS): 2.24 µM
TGI (SF-539 CNS): 4.81 µM
TGI (SK-MEL-2 melanoma): > 100 µM
TGI (SW-620 colon): > 100 µM
TGI (TK-10 renal): > 100 µM
TGI (UO-31 renal): > 100 µM

Cc1nc2c(sc(=S)n2-c2ccccc2)c(=O)[nH]1
TGI (A498 renal): > 100 µM
TGI (HOP-92 NSCLC): > 100 µM
TGI (HT29 colon): > 100 µM
TGI (K-562 leukemia): > 100 µM
TGI (MOLT-4 leukemia): > 100 µM
TGI (NCI-H23 lung): > 100 µM
TGI (OVCAR-8 ovarian): > 100 µM
TGI (RPMI-8226 leukemia): > 100 µM
TGI (SF-268 CNS): > 100 µM
TGI (SF-295 CNS): > 100 µM
TGI (SF-539 CNS): > 100 µM
TGI (SK-MEL-2 melanoma): > 100 µM
TGI (SK-MEL-28 melanoma): > 100 µM
TGI (SW-620 colon): > 100 µM
TGI (TK-10 renal): > 100 µM
TGI (UO-31 renal): > 100 µM

Cc1cn(Cc2cnnn2CC2OC(n3cc(C)c(=O)[nH]c3=O)CC2O)c(=O)[nH]c1=O (stereo not drawn)
TGI (A498 renal): > 100 µM
TGI (CAKI-1 renal): > 100 µM
TGI (HCT-15 colon): > 100 µM
TGI (HOP-92 NSCLC): > 100 µM
TGI (LOX IMVI melanoma): > 100 µM
TGI (M14 melanoma): > 100 µM
TGI (MOLT-4 leukemia): > 100 µM
TGI (NCI-H23 lung): > 100 µM
TGI (OVCAR-8 ovarian): > 100 µM
TGI (RPMI-8226 leukemia): > 100 µM
TGI (SF-268 CNS): > 100 µM
TGI (SF-295 CNS): > 100 µM
TGI (SF-539 CNS): > 100 µM
TGI (SK-MEL-2 melanoma): > 100 µM
TGI (SK-MEL-28 melanoma): > 100 µM
TGI (SW-620 colon): > 100 µM
TGI (TK-10 renal): > 100 µM
TGI (UO-31 renal): > 100 µM

COc1cc2cc[n+]3c(C)c4cc(OC)c(OC)cc4c([O-])c3c2cc1OC
TGI (A498 renal): > 100 µM
TGI (CAKI-1 renal): > 100 µM
TGI (HCT-15 colon): > 100 µM
TGI (HOP-92 NSCLC): > 100 µM
TGI (HT29 colon): > 100 µM
TGI (K-562 leukemia): > 100 µM
TGI (M14 melanoma): > 100 µM
TGI (MOLT-4 leukemia): > 100 µM
TGI (NCI-H23 lung): > 100 µM
TGI (OVCAR-8 ovarian): > 100 µM
TGI (RPMI-8226 leukemia): > 100 µM
TGI (SF-268 CNS): > 100 µM
TGI (SF-295 CNS): > 100 µM
TGI (SF-539 CNS): > 100 µM
TGI (SK-MEL-2 melanoma): > 100 µM
TGI (SK-MEL-28 melanoma): > 100 µM
TGI (SW-620 colon): > 100 µM
TGI (TK-10 renal): > 100 µM
TGI (UO-31 renal): > 100 µM

NCCCN(CCCN)CCN(CCN(CCCN)CCCN)CCN(CCCN)CCCN
TGI (CAKI-1 renal): > 100 µM
TGI (HCT-15 colon): > 100 µM
TGI (HOP-92 NSCLC): > 100 µM
TGI (HT29 colon): > 100 µM
TGI (K-562 leukemia): > 100 µM
TGI (LOX IMVI melanoma): > 100 µM
TGI (M14 melanoma): > 100 µM
TGI (NCI-H23 lung): > 100 µM
TGI (OVCAR-8 ovarian): > 100 µM
TGI (RPMI-8226 leukemia): > 100 µM
TGI (SF-295 CNS): > 100 µM
TGI (SK-MEL-2 melanoma): > 100 µM
TGI (SK-MEL-28 melanoma): > 100 µM
TGI (SW-620 colon): > 100 µM
TGI (TK-10 renal): > 100 µM
TGI (UO-31 renal): > 100 µM

COc1ccc(C2N(NC(=O)c3ccncc3)C(=O)CS2(=O)=O)cc1F (stereo not drawn)
TGI (A498 renal): > 100 µM
TGI (CAKI-1 renal): > 100 µM
TGI (HCT-15 colon): > 100 µM
TGI (HOP-92 NSCLC): > 100 µM
TGI (HT29 colon): > 100 µM
TGI (LOX IMVI melanoma): > 100 µM
TGI (M14 melanoma): > 100 µM
TGI (MOLT-4 leukemia): > 100 µM
TGI (NCI-H23 lung): > 100 µM
TGI (RPMI-8226 leukemia): > 100 µM
TGI (SF-268 CNS): > 100 µM
TGI (SF-295 CNS): > 100 µM
TGI (SK-MEL-2 melanoma): > 100 µM
TGI (SK-MEL-28 melanoma): > 100 µM
TGI (SW-620 colon): > 100 µM
TGI (TK-10 renal): > 100 µM
